Experiments:
[1] = Permeability measured by traditional experiments (macroscopic diffusion cells); assay type: in vitro ADME
Description: (§1) The following experiments were performed to assess the usefulness of a method, which determines the loss of a test substance from a formulation over time. Experiments were performed to assess whether this method can be used for estimation of skin permeability to drugs. For these studies, phosphate buffered saline was used as a model formulation. […] Ten holes were drilled into the disc and each hole was about 2 mm wide. The disc was then placed on the SC prepared from human skin. Solutions of nine different drugs in PBS were placed in various holes. The concentration of drugs in the solutions were measured at time zero. The drugs were allowed to remain in contact with the skin for 24 hours. Samples were taken from the holes at the end of 24 hours and then analyzed using a liquid scintillation counter. The amount of drug lost from the donor hole was calculated. Permeability measurements of the same drugs were performed using conventional methods that use macroscopic diffusion cells.

[2] = Loss of drug from donor hole of Teflon disc placed on stratum corneum; assay type: in vitro ADME; conditions: drug in PBS, 2 mm hole, human SC, 24 hours contact, liquid scintillation counting
Description: as §1

[3] = Conductivity enhancement of skin, Franz diffusion cells; assay type: in vitro ADME, pig; conditions: Franz diffusion cell, 0-2% in PBS, 24 hours
Description: A small stir bar and an Ag/AgCl disk electrode ([…] In-vivo Metrics) were added to the receiver chamber. In addition, the receiver chamber was filled with PBS. Pigskin was thawed and was mounted on the diffusion cell with the epidermis side facing up. The donor and the receiver compartments were clamped making sure there were no bubbles in the receiver chamber. Before each experiment, structural integrity of the skin was confirmed by measuring its conductivity. Skin samples with a resistivity less than 20 Kohm-cm^2 were assumed to be defective and not used. Skin conductivity was measured throughout the experiment to assess the effect of the formulation on skin structure. […] Each formulation was prepared in PBS. Current across the skin was measured over a period of 24 hours. The enhancement of skin conductivity was calculated as [formula] where It is the current across skin at time t, I0 being the current across skin at time 0.

[4] = Conductivity enhancement of skin, 10x10 High Throughput array; assay type: in vitro ADME, pig; conditions: 10x10 array, 0-2% (w/v) in PBS, up to 25 hrs, n=4
Description: This array is built as a pattern of 10×10 matrix. This corresponds to 100 test wells, each well 3 mm in diameter. The formulations to be tested are filled in the donor compartments. Each formulation is filled in 4 wells and each well can hold about 85 μL of the test formulation. Two 22 G 1½ needles are used as electrodes to measure current across the skin. One needle is stuck into the dermis and acts as the common electrode while the other needle is sequentially placed in each well to measure current. Current measurements are made across the skin periodically over a span of 25 hrs. […] The conductivity enhancement for a given formulation at time ‘t’ is then calculated as [formula] where It is the current across the skin at time ‘t’ and I0 is the current across the skin at time 0. […] The error bars correspond to the standard deviations. (n=4).

[5] = Transport enhancement of radiolabelled mannitol into skin, 5x5 High Throughput array; assay type: in vitro ADME, pig; conditions: 5x5 array, 0-2% (w/v) in PBS, 7 hrs
Description: Screening of the formulations is performed using pigskin. The wells in the receiver plate are filled with PBS. The skin is placed on the receiver plate with the stratum corneum (SC) facing the donor plate. The donor plate is then placed on the skin and the entire assembly is clamped tightly using four screws. A mild vacuum is then applied to remove any excess PBS that may be pushed in to the wells in the receiver plate. Radiolabelled mannitol was added to all formulations prepared in PBS at a concentration of 10 μCi/mL. The donor compartments were filled with these formulations each formulation was filled in 1 well. The skin was then incubated for 7 hrs. The solutions from the donor compartment were removed at the end of incubation period. The skin was then gently rinsed to free any mannitol that could be sticking to the surface of the skin. The skin was then cut and dissolved in 0.5 M Solvable, a tissue and gel solubilizer from Packard Chemicals at 60° C. overnight. […] The transport enhancement at different test formulations is then calculated as [formula] where CF is the radiation count for a particular test formulation and CC is the radiation count for the control i.e. PBS alone without any enhancer.

[6] = Transport enhancement of radiolabeled mannitol into skin, Franz diffusion cells; assay type: in vitro ADME, pig; conditions: Franz diffusion cell, 0-2% (w/v) in PBS, 7 hrs
Description: The skin was incubated in the cells for 7 hrs. At the end of 7 hrs the skin was removed from the cell and dissolved in 0.5M Solvable, a gel and tissue solubilizer from Packard Chemicals, at 60° C. overnight. […] The enhancement of transdermal mannitol transport due to the formulations was calculated using the equation, E^T=CF/CC, where CF is the radiation count for a particular formulation and CC is the radiation count for the control which in this case is simply PBS with radiolabeled mannitol but no surfactant.

[7] = Conductivity enhancement of skin, 5x5 High Throughput array; assay type: in vitro ADME, pig; conditions: 5x5 array, 0-2% (w/v) in PBS, up to 25 hrs
Description: This array is built as a pattern of a 5×5 matrix. This corresponds to 25 test wells, each well 7.5 mm in diameter. It consists of two polycarbonate plates each 0.5 inches thick. The top plate (donor plate) has 25 through holes (wells), diameter 7.5 mm, drilled in it, each of which acts as an isolated donor chamber similar to the donor chamber in the Franz diffusion cells. The bottom plate (receiver plate) also has holes (wells) drilled in a similar pattern as the donor plate and simulates the receiver compartment of the diffusion cells. All wells are isolated from each other for all practical purposes and each well acts like an individual diffusion cell. The skin is placed between the donor and receiver plate and the plate assembly is clamped using four screws as shown in the figure.
Screening of the formulations is performed using pigskin. The wells in the receiver plate are filled with PBS. The skin is placed on the receiver plate with the stratum corneum (SC) facing the donor plate. The donor plate is then placed on the skin and the entire assembly is clamped tightly using four screws. […]
The formulations to be tested are filled in the donor compartments. […] The current, measured at 100 Hz and 143 mVpp, varied between 1 μA at time 0 to 25-30 μA at time 25 hrs.
The conductivity enhancements at time t″ is then calculated as [formula] […]

[8] = Transport enhancement of radiolabelled mannitol into skin, 10x10 High Throughput array; assay type: in vitro ADME, pig; conditions: 10x10 array, 0-2% (w/v) in PBS, 7 hrs
Description: Radiolabelled mannitol was added to all formulations prepared in PBS at a concentration of 10 μCi/mL. The donor compartments were filled with these formulations with each formulation filled in 4 wells. The skin was then incubated for 7 hrs. The solutions from the donor compartment were removed at the end of incubation period. The skin was then gently rinsed to free any mannitol that could be sticking to the surface of the skin. The skin was then cut and dissolved in 0.5 M Solvable, a tissue and gel solubilizer from Packard Chemicals, at 60° C. overnight. […] The transport enhancement at different test formulations is then calculated as [formula] where CF is the radiation count for a particular test formulation and CC is the radiation count for the control i.e. PBS alone without any enhancer.

Row | SMILES | Papp [1] [×10⁻⁶ cm/s] | % Drug Lost from the Hole [2] [%] | other results
1 | C[C@]12CCC(=O)C=C1CC[C@@H]1[C@@H]2[C@@H](O)C[C@]2(C=O)[C@@H](C(=O)CO)CC[C@@H]12 [Aldosterone] | 0.00833 | 9 | 
2 | CCCCCCO [Hexanol] |  | 31 | 
3 | c1ccc2ccccc2c1 [Napthalene] |  | 47 | 
4 | CCCCCCCCCCCCCCCCCCO [Octadecanol] | 25 | 77 | 
5 | CCCCCCCCO [Octanol] | 19.4 | 47 | 
6 | CC(=O)[C@H]1CC[C@H]2[C@@H]3CCC4=CC(=O)CC[C@]4(C)[C@H]3CC[C@]12C [Progesterone] | 5.56 | 44 | 
7 | CCCCCCCCCCCCOS(=O)(=O)[O-].[Na+] [SLS, Sodium Lauryl Sulfate] |  |  | Conductivity enhancement (It/I0) [3]: increases as a function of the SLS or TDAB concentration and reaches a maximum; Conductivity enhancement (It/I0) [4]: increases with increasing SLS or TDAB concentration and reaches a maximum after which it starts decreasing; Transport enhancement (amount of mannitol transported, CF/CC) [5]: increases monotonously as a function of the surfactant concentration; Transport enhancement (amount of mannitol transported, CF/CC) [6]: increases monotonously as a function of the surfactant concentration; Conductivity enhancement (It/I0) [7]: increases as a function of the SLS or TDAB concentration and reaches a maximum; Transport enhancement (amount of mannitol transported, CF/CC) [8]: increases monotonously as a function of the surfactant concentration
8 | C[C@]12CC[C@H]3[C@@H](CCC4=CC(=O)CC[C@@]43C)[C@@H]1CC[C@@H]2O [Testosterone] |  | 24 | 

Source: patent US20040023841A1, “Combinatorial method for rapid screening of drug delivery formulations” (priority 2003, published 2004)
